Laboratory results: the NIST ThermoML archive (doi:10.1021/je700022b)

Conditions: Liquid; for viscosity: Falling or rolling sphere viscometry; for mass density: Constant-volume piezometry

CCCCn1cc[n+](C)c1.F[P-](F)(F)(F)(F)F [1-butyl-3-methylimidazolium hexafluorophosphate]
Conditions | mass density, 293.15 K [kg/m3] | mass density, 313.15 K [kg/m3] | mass density, 333.15 K [kg/m3] | mass density, 353.15 K [kg/m3] | viscosity, 293.15 K [mPa·s] | viscosity, 313.15 K [mPa·s] | viscosity, 333.15 K [mPa·s] | viscosity, 353.15 K [mPa·s]
100 kPa | – | – | – | – | 395 | – | – | –
15000 kPa | 1377 | 1362 | 1346 | 1330 | 468 | 140 | 61 | 29.3
20000 kPa | 1379 | 1364 | 1349 | 1332 | 504 | 151 | 63.2 | 30.5
